Reference: patent publication US20170049842A1, “FOOD ADDITIVE FOR PRODUCING FOOD FOR PREVENTING CRANIAL NERVE DISEASE AND/OR IMPROVING BRAIN FUNCTION” (FUJI OIL HOLDINGS INC., priority 2014, published 2017)
Read-outs that look alike come from different tables or passages of the source. Peptide text beside a SMILES is read from it.

Legend:
[1] = Permeability coefficient (Papp) across Caco-2 cell monolayers in Ussing Chamber; details: Caco-2; for Papp A→B at 60 min, 10 mM: human
Protocol: (§1) The measurement of permeability coefficient, which was an index of absorbability in the intestinal tract, of ARPs was performed as follows.
(§2) Caco-2 cells were seeded in Cell culture insert at 4.0×10^5 cells/mL, and cultured for 3 days in an intestinal epithelial differentiation promoting medium. Caco-2 cell monolayers were cut and set to Ussing Chamber. Hanks' Balanced Salt Solution (HBSS) (apical membrane side: pH 6.0, basolateral membrane side: pH 7.4) was added in each Chamber. After 15 minutes preliminary heat retention (37° C., 95% O2/5% CO2 mixture gas), each ARPs aqueous solution (10 mM) was added to apical membrane side. Samples were recovered from the basolateral membrane side every 15 minutes (total 60 minutes). The recovered sample was subjected to ESI-TOF-MS (Electro Spray Ionization-Time of Flight-Mass Spectrometry) analysis to determine permeated peptide amount. Permeability coefficient (Papp) was calculated according to the following formula.
(§3) C0: concentration of added peptide (mmol/L)
(§4) dC/dt: Permeated amount of peptide per time (mmol/L·sec)
(§5) Concentration of peptide, which transitioned to the basolateral membrane side in each time, was calculated based on the area from reference standard. In addition, it was confirmed that they were not degraded to amino acids.
(§6) Permeated peptide amount per time was calculated and permeability coefficient (Papp) was calculated according to the above formula.

Caco-2 cell monolayers [2] = test: as above; details: compared with the other ARPs
Protocol: as §1, §2, §3, §4, §5, §6

Caco-2 cell monolayers [3] = test system: Caco-2 cell monolayers
Protocol: as §1, §2, §3, §4, §5, §6

in vitro = details: human, Caco-2
Protocol: as §1, §2, §3, §4, §5, §6

SMILES	Papp A→B [1]	permeability coefficient / permeation efficiency in mesenteric model cell, in words (Caco-2 cell monolayers [2])	also measured
N[C@@H](CO)C(=O)N[C@@H](Cc1ccc(O)cc1)C(=O)O [A, Ser-Tyr] (H-Ser-Tyr-OH; N-terminus and C-terminus assumed)	0.72 ± 0.272 ×10⁻⁶ cm/s	relatively high permeation efficiency	
CC(C)C[C@H](NC(=O)[C@@H](N)Cc1ccc(O)cc1)C(=O)O [B, Tyr-Leu] (H-Tyr-Leu-OH; N-terminus and C-terminus assumed)			permeability coefficient / permeation efficiency in mesenteric model cell, in words (Caco-2 cell monolayers [3]): relatively higher permeability coefficient than the other ARPs; Papp A→B at 60 min, 10 mM (in vitro): 0.596 ± 0.198 ×10⁻⁶ cm/s
N[C@@H](Cc1ccc(O)cc1)C(=O)N[C@@H](CO)C(=O)O [D, Tyr-Ser] (H-Tyr-Ser-OH; N-terminus and C-terminus assumed)	0.248 ± 0.088 ×10⁻⁶ cm/s	relatively higher permeability coefficient than the other ARPs	
N[C@@H](Cc1ccc(O)cc1)C(=O)N1CCC[C@H]1C(=O)O [E, Tyr-Pro] (H-Tyr-Pro-OH; N-terminus and C-terminus assumed)	0.885 ± 0.215 ×10⁻⁶ cm/s	relatively high permeation efficiency	
NC(=O)C[C@H](NC(=O)[C@@H](N)Cc1ccc(O)cc1)C(=O)O [F, Tyr-Asn] (H-Tyr-Asn-OH; N-terminus and C-terminus assumed)	0.044 ± 0.009 ×10⁻⁶ cm/s		
N[C@@H](Cc1ccccc1)C(=O)N[C@@H](Cc1ccc(O)cc1)C(=O)O [G, Phe-Tyr] (H-Phe-Tyr-OH; N-terminus and C-terminus assumed)			Papp A→B at 60 min, 10 mM [1]: 0.006 ± 0.0001 ×10⁻⁶ cm/s
CC[C@H](C)[C@H](N)C(=O)N[C@@H](Cc1ccc(O)cc1)C(=O)O [H, Ile-Tyr] (H-Ile-Tyr-OH; N-terminus and C-terminus assumed)	2.92 ± 0.265 ×10⁻⁶ cm/s	relatively high permeation efficiency	
N=C(N)NCCC[C@H](NC(=O)[C@@H](N)Cc1ccc(O)cc1)C(=O)O [Peptide C, Tyr-Arg]			Papp A→B at 60 min, 10 mM [1]: 0.05 ± 0.011 ×10⁻⁶ cm/s
